Key:
[1] = biological target: T1, Human Calpain 1/NS1 (Homo sapiens, UniProt P07384); assay: Biochemical inhibition of calpain 1, continuous fluorescence (FRET substrate) assay; conditions: mean, read-out: Human Calpain 1/NS1 IC50 (nM)_MEAN
T1 sequence (P07384 1-714): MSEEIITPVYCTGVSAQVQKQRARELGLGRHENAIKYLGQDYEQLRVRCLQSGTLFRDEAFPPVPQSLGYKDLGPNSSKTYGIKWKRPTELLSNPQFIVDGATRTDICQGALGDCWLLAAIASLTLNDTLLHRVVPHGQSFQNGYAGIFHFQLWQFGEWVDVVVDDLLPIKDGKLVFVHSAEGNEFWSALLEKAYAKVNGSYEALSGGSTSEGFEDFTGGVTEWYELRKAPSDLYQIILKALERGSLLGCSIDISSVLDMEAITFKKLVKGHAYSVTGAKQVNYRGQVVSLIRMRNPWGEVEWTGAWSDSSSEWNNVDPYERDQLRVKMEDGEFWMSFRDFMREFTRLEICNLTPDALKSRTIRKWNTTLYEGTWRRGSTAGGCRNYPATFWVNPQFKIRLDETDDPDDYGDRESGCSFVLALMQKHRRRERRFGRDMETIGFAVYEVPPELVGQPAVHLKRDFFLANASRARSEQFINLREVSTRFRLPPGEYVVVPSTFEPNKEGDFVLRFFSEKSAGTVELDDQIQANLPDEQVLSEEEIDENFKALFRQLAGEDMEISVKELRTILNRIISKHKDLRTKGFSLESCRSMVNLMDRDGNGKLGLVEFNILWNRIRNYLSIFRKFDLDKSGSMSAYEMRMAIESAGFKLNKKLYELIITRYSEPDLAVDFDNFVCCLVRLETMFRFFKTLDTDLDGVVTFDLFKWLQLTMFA
T1 sequence (P04632 1-268 partner): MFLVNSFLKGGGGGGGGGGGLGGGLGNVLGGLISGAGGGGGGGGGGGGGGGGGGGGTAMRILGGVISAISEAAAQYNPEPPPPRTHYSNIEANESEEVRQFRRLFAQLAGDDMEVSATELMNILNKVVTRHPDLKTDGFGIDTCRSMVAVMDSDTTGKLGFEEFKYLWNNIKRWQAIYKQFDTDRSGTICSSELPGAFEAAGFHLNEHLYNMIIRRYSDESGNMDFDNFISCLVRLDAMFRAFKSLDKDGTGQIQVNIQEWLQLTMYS
How it was run: (§1)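 IC50 values come from 4-parameter fits of progress-curve rates (1-5 min slopes) against log inhibitor concentration. Calpain and inhibitor premixed at ambient 25C in Tris pH ~7.5/NaCl/DTT buffer, then CaCl2 and FRET substrate added to activate; 5-FAM fluorescence (ex 490/em 520) followed 10 min.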

[2] = biological target: T2, Human Calpain 2/NS1 (Homo sapiens, UniProt P17655); assay: Biochemical inhibition of calpain 2, continuous fluorescence (FRET substrate) assay; conditions: mean, read-out: Human Calpain 2/NS1 IC50 (nM)_MEAN
T2 sequence (P17655 1-700): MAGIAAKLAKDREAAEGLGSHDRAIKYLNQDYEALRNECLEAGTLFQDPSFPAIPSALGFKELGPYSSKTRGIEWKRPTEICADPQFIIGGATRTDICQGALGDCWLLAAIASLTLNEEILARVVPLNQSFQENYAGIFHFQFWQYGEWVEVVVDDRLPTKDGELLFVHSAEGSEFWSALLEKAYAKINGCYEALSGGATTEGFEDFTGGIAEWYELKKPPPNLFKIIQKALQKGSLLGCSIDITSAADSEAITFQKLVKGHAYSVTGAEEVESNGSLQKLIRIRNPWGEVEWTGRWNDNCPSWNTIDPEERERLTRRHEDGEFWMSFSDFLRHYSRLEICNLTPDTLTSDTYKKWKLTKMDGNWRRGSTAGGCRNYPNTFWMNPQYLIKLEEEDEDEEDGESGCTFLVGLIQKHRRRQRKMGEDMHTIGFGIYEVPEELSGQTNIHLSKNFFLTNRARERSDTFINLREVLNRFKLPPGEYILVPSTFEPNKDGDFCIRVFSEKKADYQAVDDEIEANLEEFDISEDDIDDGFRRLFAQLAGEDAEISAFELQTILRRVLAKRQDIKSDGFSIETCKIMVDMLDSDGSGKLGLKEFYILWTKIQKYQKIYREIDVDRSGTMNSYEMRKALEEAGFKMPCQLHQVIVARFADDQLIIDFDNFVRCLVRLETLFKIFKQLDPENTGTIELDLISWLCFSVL
T2 sequence (P04632 1-268 partner): T1 sequence (P04632 1-268 partner)
How it was run: as §1

[3] = biological target: T3, Human Calpain 9/NS1 (Homo sapiens, UniProt O14815); assay: Biochemical inhibition of calpain 9, continuous fluorescence (FRET substrate) assay; conditions: mean, read-out: Human Calpain 9/NS1 IC50 (nM)_MEAN
T3 sequence (O14815 1-690): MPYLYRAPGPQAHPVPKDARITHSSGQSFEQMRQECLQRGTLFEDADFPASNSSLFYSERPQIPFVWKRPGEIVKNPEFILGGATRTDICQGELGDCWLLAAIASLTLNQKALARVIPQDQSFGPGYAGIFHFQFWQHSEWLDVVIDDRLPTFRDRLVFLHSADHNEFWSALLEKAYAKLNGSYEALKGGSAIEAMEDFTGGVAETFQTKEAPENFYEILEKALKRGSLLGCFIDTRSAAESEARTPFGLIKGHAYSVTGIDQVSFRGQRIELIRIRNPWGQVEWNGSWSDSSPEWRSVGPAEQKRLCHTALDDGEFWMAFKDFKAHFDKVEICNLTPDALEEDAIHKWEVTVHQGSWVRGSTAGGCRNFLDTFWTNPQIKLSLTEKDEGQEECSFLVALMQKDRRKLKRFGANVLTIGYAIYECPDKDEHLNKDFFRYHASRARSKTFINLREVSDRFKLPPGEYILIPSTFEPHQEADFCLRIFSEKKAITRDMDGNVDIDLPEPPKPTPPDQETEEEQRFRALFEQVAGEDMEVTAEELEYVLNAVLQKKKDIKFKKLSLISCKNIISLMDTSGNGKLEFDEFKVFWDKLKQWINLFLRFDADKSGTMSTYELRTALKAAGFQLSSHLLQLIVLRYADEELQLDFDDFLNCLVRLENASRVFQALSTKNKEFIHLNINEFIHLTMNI
T3 sequence (P04632 1-268 partner): T1 sequence (P04632 1-268 partner)
How it was run: as §1

SMILES | IC50 [1] [nM] | IC50 [2] [nM] | IC50 [3] [nM]
O=C[C@@H]1CCCCCOc2cccc(c2)-c2ncccc2C(=O)N1 [Compound 38, (S)-11-Oxo-3-oxa-10-aza-1(2,3)-pyridina-2(1,3)-benzenacycloundecaphane-9-carbaldehyde] | < 3000 | < 3000 | < 3000
O=C(NCc1cccc(F)c1)C(=O)C1CCCCOCCOCc2ccccc2C(=O)N1 (stereo not drawn) [Compound 106, N-(3-fluorobenzyl)-2-oxo-2-(12-oxo-1,3,4,6,7,8,9,10,11,12-decahydrobenzo[f][1,4]dioxa[9]azacyclotetradecin-10-yl)acetamide] | > 10000 | 3000 to 10000 | < 3000
CCNC(=O)C(=O)[C@@H]1Cc2ccc(cc2)OCCCCOc2cccc(c2)-c2ccn(n2)-c2ncccc2C(=O)N1 [Compound 45, N-ethyl-2-oxo-2-((6S,E)-4-oxo-2^1H-9,14-dioxa-5-aza-3(2,3)-pyridina-2(3,1)-pyrazola-1(1,3),8(1,4)-dibenzenacyclotetradecaphane-6-yl)acetamide] | < 3000 | < 3000 | < 3000
O=C[C@@H]1CCCCCCOCc2ccccc2C(=O)N1 [Compound 42, (S)-11-Oxo-1,3,4,5,6,7,8,9,10,11-decahydrobenzo[c][1]oxa[6]azacyclotridecine-9-carbaldehyde] | > 10000 | < 3000 | < 3000
O=C(NCCc1ccc(Cl)cc1)C(=O)[C@@H]1C/C=C/COCCOCc2ccccc2C(=O)N1 [Compound 78, (S,E)-N-(4-chlorophenethyl)-2-oxo-2-(12-oxo-1,3,4,6,9,10,11,12-octahydrobenzo[f][1,4]dioxa[9]azacyclotetradecin-10-yl)acetamide] | 3000 to 10000 | 3000 to 10000 | < 3000
CCOC(=O)CCNC(=O)C(=O)[C@@H]1C/C=C\COCCOCc2ccccc2C(=O)N1 [Compound 60, Ethyl (S,Z)-3-(2-oxo-2-(12-oxo-1,3,4,6,9,10,11,12-octahydrobenzo[f][1,4]dioxa[9]azacyclotetradecin-10-yl)acetamido)propanoate] | > 10000 | > 10000 | > 10000
NC(=O)C(=O)[C@@H]1CCCCCCOc2ccnc(n2)-c2ccccc2C(=O)N1 [Compound 134, (S)-2-oxo-2-(3-oxo-12-oxa-4-aza-1(2,4)-pyrimidina-2(1,2)-benzenacyclododecaphane-5-yl)acetamide] | < 3000 | < 3000 | < 3000
O=C(NC1CC1)C(=O)[C@@H]1Cc2ccc(cc2)OC/C=C/COc2ccc3c(cnn3-c3ncccc3C(=O)N1)c2 [Compound 69, N-cyclopropyl-2-oxo-2-((5S,E)-3-oxo-1^1H-8,13-dioxa-4-aza-1(1,5)-indazola-2(2,3)-pyridina-7(1,4)-benzenacyclotridecaphan-10-en-5-yl)acetamide] | 3000 to 10000 | < 3000 | < 3000
O=C(NCc1ccc(F)cc1)C(=O)C1CCCCOCCOCc2ccccc2C(=O)N1 (stereo not drawn) [Compound 98, N-(4-fluorobenzyl)-2-oxo-2-(12-oxo-1,3,4,6,7,8,9,10,11,12-decahydrobenzo[f][1,4]dioxa[9]azacyclotetradecin-10-yl)acetamide] | > 10000 | < 3000 | < 3000
CCOC(=O)CNC(=O)C(=O)[C@@H]1CCCCOCCOCc2ccccc2C(=O)N1 [Compound 56, Ethyl (S)-(2-oxo-2-(12-oxo-1,3,4,6,7,8,9,10,11,12-decahydrobenzo[f][1,4]dioxa[9]azacyclotetradecin-10-yl)acetyl)glycinate] | > 10000 | < 3000 | < 3000
COc1ccc(CNC(=O)C(=O)C2CCCCOCCOCc3ccccc3C(=O)N2)cc1 (stereo not drawn) [Compound 100, N-(4-methoxybenzyl)-2-oxo-2-(12-oxo-1,3,4,6,7,8,9,10,11,12-decahydrobenzo[f][1,4]dioxa[9]azacyclotetradecin-10-yl)acetamide] | > 10000 | 3000 to 10000 | < 3000
O=C(NCCc1ccccc1)C(=O)C1CCCCOCCOCc2ccccc2C(=O)N1 (stereo not drawn) [Compound 104, 2-Oxo-2-(12-oxo-1,3,4,6,7,8,9,10,11,12-decahydrobenzo[f][1,4]dioxa[9]aza-cyclotetradecin-10-yl)-N-phenethylacetamide] | > 10000 | 3000 to 10000 | < 3000
COc1ccc(CCNC(=O)C(=O)C2CCCCOCCOCc3ccccc3C(=O)N2)cc1OC (stereo not drawn) [Compound 123, N-(3,4-dimethoxyphenethyl)-2-oxo-2-(12-oxo-1,3,4,6,7,8,9,10,11,12-decahydrobenzo[f][1,4]dioxa[9]azacyclotetradecin-10-yl)acetamide] | > 10000 | > 10000 | 3000 to 10000
O=C[C@@H]1CC=CCCOc2nccc(n2)-c2ccccc2C(=O)N1 [Compound 40, (S)-11-Oxo-3-oxa-10-aza-1(2,3)-pyridina-2(1,3)-benzena-cycloundecaphane-9-carbaldehyde] | 3000 to 10000 | < 3000 | < 3000
O=C(NCc1ccccc1)C(=O)C1CCCCOCCOCc2ccccc2C(=O)N1 (stereo not drawn) [Compound 97, N-benzyl-2-oxo-2-(12-oxo-1,3,4,6,7,8,9,10,11,12-decahydrobenzo[f][1,4]dioxa[9]azacyclotetradecin-10-yl)acetamide] | > 10000 | > 10000 | < 3000
O=C(NC1CC1)C(=O)[C@@H]1Cc2ccc(cc2)CCCCc2cccc(c2)-c2ccn(n2)-c2ncccc2C(=O)N1 [Compound 74, N-cyclopropyl-2-oxo-2-((10S,E)-12-oxo-2′H-11-aza-1(2,3)-pyridina-2(1,3)-pyrazola-3(1,3),8(1,4)-dibenzenacyclododecaphane-10-yl)acetamide] | < 3000 | < 3000 | < 3000
NS(=O)(=O)c1ccc(CNC(=O)C(=O)C2CCCCOCCOCc3ccccc3C(=O)N2)cc1 (stereo not drawn) [Compound 84, 2-Oxo-2-(12-oxo-1,3,4,6,7,8,9,10,11,12-decahydrobenzo[f][1,4]dioxa[9]aza-cyclotetradecin-10-yl)-N-(4-sulfamoylbenzyl)acetamide] | > 10000 | 3000 to 10000 | < 3000

Reference: US11292801B2, “Calpain modulators and therapeutic uses thereof” (Blade Therapeutics, Inc., priority 2016, dated 2022)
